As a reminder, the IC50 is the midpoint of a concentration-inhibition curve. A low value points to inhibition by little substance.

For the assay, the target named is T1, human CXCR2 (Homo sapiens, UniProt P25025).
T1 construct: expressed in transfected cells; host or cells: BAF/3 cells
T1 sequence (P25025 1-360): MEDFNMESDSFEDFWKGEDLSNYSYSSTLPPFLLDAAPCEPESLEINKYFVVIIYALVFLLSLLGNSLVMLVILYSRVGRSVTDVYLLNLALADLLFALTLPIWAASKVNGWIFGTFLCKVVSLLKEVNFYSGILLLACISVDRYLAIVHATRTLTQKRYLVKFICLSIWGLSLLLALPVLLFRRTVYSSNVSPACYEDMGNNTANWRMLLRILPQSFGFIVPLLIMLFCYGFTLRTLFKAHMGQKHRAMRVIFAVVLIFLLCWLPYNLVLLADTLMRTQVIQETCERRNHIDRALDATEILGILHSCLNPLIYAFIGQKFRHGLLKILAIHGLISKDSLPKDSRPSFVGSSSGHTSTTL
In words: Chemotaxis assay 1, transfected cell line: inhibition of CXCL1 induced chemotaxis of BAF/3 cells expressing human CXCR2. Type of assay: cell-based. The settings on record: CXCL1 (3 nM) induced chemotaxis of BAF/3 cells expressing human CXCR2, 4 hours, Cell Titer Glo readout. How it is done: Chemotaxis Assay 1, Transfected Cell Line:
This assay measures the inhibition of CXCL1 induced chemotaxis of BAF/3 cells expressing human CXCR2. For each assay point, 100 μL of a 3×10^6/mL cell suspension are incubated with 1 μL of test compound diluted in DMSO. The bottom wells of a chemotaxis plate (5 μm pore size, Neuroprobe) is filled with 305 μL of chemotaxis buffer (RPMI 1640 medium (phenol red free), containing 2% fetal calf serum) and 3 nM CXCL1. The 5 μm pore membrane is applied onto the chemotaxis plate and 80 μL of the cell suspension is cautiously pipetted onto the membrane. The lid is put on the chemotaxis plate and the plate is incubated for 4 hours in an incubator (37° C., 5% CO2). For quantification of migrated cells, the cell suspension and the lid are removed and 100 μL from the bottom chamber are transferred to an Opti plate 96 (Perkin Elmer). 100 μL of substrate solution (provided by Cell Titer Glo kit, Promega) are added. This method uses the measurement of ATP present in metabolically active cells. After 10 min incubation at room temperature the plate is measured at Luminoscan for quantification of ATP-dependent generation of oxyluciferin. IC50s of the tested compound are calculated by non-linear regression and using a sigmoidal dose-response curve as fitting algorithm (provided by GraphPadPrism). Determination of a bottom value is performed by quantification of migration of buffer treated cells, migrating towards buffer only. Determination of a top value is performed by quantification of migration of buffer treated cells, migrating towards CXCL1.
`CC[C@@H](Nc1c(Nc2ccc(Cl)c(S(=O)(=O)N3CCN4CCCC4C3)c2O)c(=O)c1=O)c1ccccc1` (some centres unmarked) [Example 1]: the IC50 came to 0.7 nM.
In turn, `CC[C@@H](Nc1c(Nc2ccc(Cl)c(S(=O)(=O)N3CCN4CCCC4C3)c2O)c(=O)c1=O)c1ccc(C)o1` (some centres unmarked) [Example 2] gave an IC50 of 0.9 nM.
For the molecule `O=c1c(Nc2ccc(Cl)c(S(=O)(=O)N3CCN4CCCC4C3)c2O)c(Nc2cccc(F)c2Cl)c1=O` (centres unmarked) [Example 3], it took 5.1 nM to reach half-maximal inhibition (IC50).
In turn, `CC[C@@H](Nc1c(Nc2ccc(Cl)c(S(=O)(=O)N3CCN4CCOCC4C3)c2O)c(=O)c1=O)c1ccccc1` (some centres unmarked) [Example 4] registered an IC50 of 0.6 nM.
Turning to `CC[C@@H](Nc1c(Nc2ccc(Cl)c(S(=O)(=O)N3CCN4CCOCC4C3)c2O)c(=O)c1=O)c1ccc(C)o1` (some centres unmarked) [Example 5], half-maximal inhibition (IC50) was put at 6.8 nM.
Regarding `O=c1c(Nc2ccc(Cl)c(S(=O)(=O)N3CCN4CCOCC4C3)c2O)c(Nc2cccc(F)c2Cl)c1=O` (centres unmarked) [Example 6], the IC50 was 37.8 nM.
As to `CC[C@@H](Nc1c(Nc2ccc(Cl)c(S(=O)(=O)N3CCN4CCOC[C@H]4C3)c2O)c(=O)c1=O)c1ccc(C)o1` [Example 7], the IC50 was determined as 4.9 nM.
`CC[C@@H](Nc1c(Nc2ccc(Cl)c(S(=O)(=O)N3CCN4CCOC[C@H]4C3)c2O)c(=O)c1=O)c1ccc(C(F)(F)F)o1` [Example 8] returned an IC50 of 56.6 nM.
In turn, `CC[C@@H](Nc1c(Nc2ccc(Cl)c(S(=O)(=O)N3CCN4CCOC[C@@H]4C3)c2O)c(=O)c1=O)c1ccc(C)o1` [Example 9] displayed an IC50 of 13.4 nM.
In turn, `CC[C@@H](Nc1c(Nc2ccc(Cl)c(S(=O)(=O)N3CCN4CCOC[C@@H]4C3)c2O)c(=O)c1=O)c1ccc(C(F)(F)F)o1` [Example 10] showed an IC50 of 64.8 nM.
The molecule `CCC(Nc1c(Nc2ccc(Cl)c(S(=O)(=O)N3CCN4C(=O)CCC4C3)c2O)c(=O)c1=O)c1ccccc1` (centres unmarked) [Example 11] returned an IC50 of 2.6 nM.
Consider `CCC(Nc1c(Nc2ccc(Cl)c(S(=O)(=O)N3CCN4C(=O)CCC4C3)c2O)c(=O)c1=O)c1ccc(C)o1` (centres unmarked) [Example 12], for which 14.4 nM corresponded to half-maximal inhibition (IC50). Compared with the last molecule, the IC50 is about 5.5-fold higher.
As for `CC[C@@H](Nc1c(Nc2ccc(Cl)c(S(=O)(=O)N3CCC4(CCNC4=O)CC3)c2O)c(=O)c1=O)c1ccccc1` [Example 13], inhibition was half-maximal at 22.6 nM (IC50).
As to `CC[C@@H](Nc1c(Nc2ccc(Cl)c(S(=O)(=O)N3CCC4(CCNC4=O)CC3)c2O)c(=O)c1=O)c1ccc(C)o1` [Example 14], the IC50 came to 47.1 nM.
For `CC[C@@H](Nc1c(Nc2ccc(Cl)c(S(=O)(=O)N3CCC4(CC3)COCCN4)c2O)c(=O)c1=O)c1ccccc1` [Example 15] the value was 33.8 nM.
The same measure for `CC[C@@H](Nc1c(Nc2ccc(Cl)c(S(=O)(=O)N3CCC4(CC3)COCCN4)c2O)c(=O)c1=O)c1ccc(C)o1` [Example 16]: 8.7 nM.
`CC[C@@H](Nc1c(Nc2ccc(Cl)c(S(=O)(=O)N3CCC4(CC3)COCCN4)c2O)c(=O)c1=O)c1ccc(C(F)(F)F)o1` [Example 17] came in with an IC50 of 54.4 nM.
`CC[C@@H](Nc1c(Nc2ccc(Cl)c(S(=O)(=O)N3CCC4(CCCC4)CC3)c2O)c(=O)c1=O)c1ccccc1` [Example 18] showed an IC50 of 149 nM.
The molecule `CC[C@@H](Nc1c(Nc2ccc(Cl)c(S(=O)(=O)N3CCC4(CCCC4)CC3)c2O)c(=O)c1=O)c1ccc(C)o1` [Example 19] returned an IC50 of 11.6 nM.
`CC[C@@H](Nc1c(Nc2ccc(Cl)c(S(=O)(=O)N3C[C@H]4NCCO[C@@H]4C3)c2O)c(=O)c1=O)c1ccc(C)o1` [Example 20] came in with an IC50 of 58.6 nM.

The values are drawn from patent US8648070B2, “Bicyclic ring system substituted sulfonamide functionalised phenols as medicaments” (Boehringer Ingelheim International GmbH, priority 2010, dated 2014).
